Experimental findings from US9992997B2, “Composition comprising bromadiolone, rodenticide bait, and method for controlling target rodent pests” (priority 2014, dated 2018) are described below.

Read-outs that look alike come from different tables or passages of the source.

Data set [1] can be described thus: Hepatic persistence in the rat after single tube-feeding of Homo-SI or Hetero-SI. The format is in vivo, Sprague Dawley rats. Here is the method: Hepatic Persistence of the Homostereoisomer (Homo-SI) and the Heterostereoisomer (Hetero-SI) of Bromadiolone in the Rat
On D0 laboratory rats (Sprague Dawley rats, Charles River, Saint germain sur l'Arbresle, France) having a body weight of the order of 200 g are tube-fed with a solution of Homo-SI in a mixture of oil/DMSO or with a solution of Hetero-SI in an identical mixture of oil/DMSO in an amount of 3.0 mg of bromadiolone per kilogram of rat. The rats are kept alive by daily subcutaneous injection of a solution of vitamin K in an amount of 0.1 U per rat. On D+1, D+3, D+7, D+14 and D+21 4 rats are anaesthetised with isoflurane and then sacrificed, and the livers are removed and frozen until analysed. The course with respect to time of the mean hepatic contents of the configurational stereoisomers “Homo-SI” (▪) and “Hetero-SI” (◯) are analysed by HPLC, given in Table 2 below and shown in FIG. 4 (the symbol (▪) represents Homo-SI and the symbol (◯) represents Hetero-SI).

Data set [2] in a line: Hepatic persistence of Homo-SI/Hetero-SI mixtures in the female rat. The class given is in vivo, female rats. The procedure: Hepatic Persistence of the Homo-SI and Hetero-SI Configurational Stereoisomers of Bromadiolone in the Female Rat
The following compositions concentrated in the Homo-SI or Hetero-SI configurational stereoisomers are prepared by one of the chromatography methods described above, in which the molar ratios are as follows: • Homo-SI/Hetero-SI: 80/20; • Homo-SI/Hetero-SI: 20/80.
The procedure with the female rats is the same as that with the male rats as described above. The mean hepatic contents of the Homo-SI and Hetero-SI isomers of the female rats are analysed by HPLC and are given in Table 4 below.

Data set [3] can be described thus: Hepatic persistence of Homo-SI/Hetero-SI mixtures in the male rat. The class given is in vivo, male Sprague Dawley rats. The procedure: Hepatic Persistence of the Homo-SI and Hetero-SI Configurational Stereoisomers of Bromadiolone in the Male Rat
The following compositions concentrated in the Homo-SI or Hetero-SI configurational stereoisomers are prepared by one of the chromatography methods described above, in which the molar ratios are as follows: • Homo-SI/Hetero-SI: 80/20; • Homo-SI/Hetero-SI: 4/96.
On D0 16 male laboratory rats (Sprague Dawley rats, Charles River, Saint germain sur l'Arbresle, France) having a body weight of the order of 200 g are tube-fed with a dose of the 80/20 mixture or the 4/96 mixture above in an amount of 3.8 mg of bromadiolone per kilogram of rat. The rats are kept alive by daily subcutaneous injection of a solution of vitamin K. On D+1, D+3, D+5 and D+10, 4 rats are anaesthetised with isoflurane and then sacrificed, and the livers are removed and frozen until analysed.

Data set [4] concerns the target T1, Vitamin K Epoxide Reductase Complex 1 (VKORC1) (Rattus norvegicus, UniProt Q6TEK4).
T1 construct: catalysed by microsomes of the livers of rats sensitive to anti-vitamin K (AVK) compounds; from tissue; host or cells: rat liver microsomes
T1 sequence (Q6TEK4 1-161): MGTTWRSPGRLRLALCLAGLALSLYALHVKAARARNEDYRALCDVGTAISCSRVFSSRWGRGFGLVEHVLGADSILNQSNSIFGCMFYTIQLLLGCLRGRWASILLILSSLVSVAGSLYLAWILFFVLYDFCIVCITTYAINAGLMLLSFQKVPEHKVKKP
Briefly: Inhibition of vitamin K epoxide reductase (VKOR) activity in vitro, rat liver microsomes. Particulars: microsomes of livers of rats sensitive to AVK; preparations 96% pure; read-out: inhibition constants (Ki) of VKOR activity. The format is biochemical. Here is the method: Inhibition of Vitamin K Epoxide Reductase Complex 1 (VKORC1) In Vitro by the Homostereoisomer and by the Heterostereoisomer of Bromadiolone
The inhibitory power of two preparations concentrated respectively in the homostereoisomer (Homo-SI) and heterostereoisomer (Hetero-SI) of bromadiolone was evaluated utilising measurement of the activity of vitamin K epoxide reductase (VKOR) catalysed by microsomes of the livers of rats sensitive to anti-vitamin K (AVK) compounds. The configurational stereoisomers of bromadiolone are partially purified by HPLC chromatography over a gradient of composition (A/B) as described in Table 1 above. The preparation concentrated in Homo-SI is made up of 96% Homo-SI and 4% Hetero-SI. The preparation concentrated in Hetero-SI is made up of 96% Hetero-SI and 4% Homo-SI. […] The inhibitory power on the toxicological target of each of the two isomers is therefore similar.

Data set [5] relates to Sprague Dawley rats. Briefly: Multi-feeding administration of composition concentrated in Homo-SI, coagulation time (Quick time). The class given is in vivo. The settings on record: daily dose of 0.25 mg during 3 consecutive days, male or female rat. The procedure: Administration of a Composition Concentrated in Homo-SI by Multiple Ingestions (“Multi-Feeding”)
A composition of bromadiolone comprising 96% Homo-SI and 4% Hetero-SI is administered daily by tube-feeding during three days (D0, D+1 and D+2) to groups of 3 male or female laboratory rats (Sprague Dawley rats of 200 g) in an amount of: • 0.05 mg of bromadiolone per kilogram of rat, or • 0.1 mg of bromadiolone per kilogram of rat, or • 0.25 mg of bromadiolone per kilogram of rat, or • 0.5 mg of bromadiolone per kilogram of rat, or • 0.75 mg of bromadiolone per kilogram of rat.
On these rats blood samples are taken and on D+3 the coagulation time (Quick time, expressed in seconds) of the plasma is measured by means of the “Neoplastine CI Determination of Prothrombin Time” kit (Diagnostica Stago, Asnière, France) by measurement on a Thrombotimer option 2 plus apparatus (Behnk Electronik, Norderstedt, Germany).
The results obtained are given in FIG. 5, on which the hatched histograms represent the coagulation time of the female rats and the solid histograms represent the coagulation times of the male rats. By way of indication, the normal value for the coagulation time of untreated rats is of the order of 10 to 20 seconds.

[6] abbreviates: D + 1, 3.0 mg/kg tube-fed on D0, 3 mg/kg.
Where [7] appears, read: D + 3, 3.0 mg/kg tube-fed on D0, 3 mg/kg.
Setting [8] is: D + 7, 3.0 mg/kg tube-fed on D0, 3 mg/kg.
Where [9] appears, read: D + 14, 3.0 mg/kg tube-fed on D0, 3 mg/kg.

In general, Ki refers to a measure of affinity in units of concentration, obtained from inhibition or displacement. Turning to `O=c1oc2ccccc2c(O)c1C(CC(O)c1ccc(-c2ccc(Br)cc2)cc1)c1ccccc1` (stereo not shown) [Homo-SI, 3-[3-(4′-bromo-[1,1′-biphenyl]-4-yl)-3-hydroxy-1-phenylpropyl]-4-hydroxy-2H-1-benzopyran-2-one], the Hepatic content was 8.27 ± 2.72 µg/g in data set [1] (setting [6]), 2.34 ± 0.43 µg/g in data set [1] (setting [7]), 1.57 ± 0.21 µg/g in data set [1] (setting [8]) and 0.99 ± 0.06 µg/g in data set [1] (setting [9]). Further, the concentration at 21 day in data set [1] (Sprague Dawley, rat, liver, oral, 3 mg/kg, D + 21, 3.0 mg/kg tube-fed on D0, read-out: Hepatic content) stood at 920 ± 80 ng/g. The “hepatic persistence compared with Hetero-SI” value in data set [1] (rat, equal initial dose) is recorded as “significantly lower”; in data set [2], “significantly lower”. In addition, in data set [3], the “hepatic persistence (comparison with Hetero-SI or 4/96 mixture)” value is “significantly lower”. For the same molecule, the Ki in data set [4] was roughly 30 nM.
Regarding `O=c1oc2ccccc2c(O)c1C(CC(O)c1ccc(-c2ccc(Br)cc2)cc1)c1ccccc1` (stereo not shown) [Mixture 20/80, reference compound], the “Hepatic content of total bromadiolone” value in data set [2] (D + 9) worked out at 7.18 µg/g. The concentration at 1 day in data set [2] (female, Sprague Dawley, rat, liver, oral, 3.8 mg/kg, D + 1, read-out: Hepatic content of total bromadiolone) came to 32500 ng/g. Further, the concentration at 3 day in data set [2] (female, Sprague Dawley, rat, liver, oral, 3.8 mg/kg, D + 3, read-out: Hepatic content of total bromadiolone) is 24200 ng/g. Further, the concentration at 5 day in data set [2] (female, Sprague Dawley, rat, liver, oral, 3.8 mg/kg, D + 5, read-out: Hepatic content of total bromadiolone) was found to be 16400 ng/g.
Regarding `O=c1oc2ccccc2c(O)c1C(CC(O)c1ccc(-c2ccc(Br)cc2)cc1)c1ccccc1` (stereo not shown) [Mixture 80/20], the “Hepatic content of total bromadiolone” value in data set [2] (D + 1) worked out at 25.39 µg/g; in data set [2] (D + 3), 12.6 µg/g; in data set [2] (D + 9), 2.47 µg/g; in data set [3] (3.8 mg/kg, D + 1, 3.8 mg/kg) it was 7.85 ± 0.51 µg/g; in data set [3] (3.8 mg/kg, D + 3, 3.8 mg/kg), 3.49 ± 0.29 µg/g; in data set [3] (3.8 mg/kg, D + 5, 3.8 mg/kg) it was 2.15 ± 0.90 µg/g. For the same molecule, the “Hepatic content of total bromadiolone” value in data set [3] (3.8 mg/kg, D + 10, 3.8 mg/kg) is 1.33 ± 0.14 µg/g. The “hepatic persistence (comparison with Hetero-SI or 4/96 mixture)” value in data set [3] (listed as 80/20 mixture) is given as “less persistent”. Also, in data set [3] (male, Sprague Dawley, rat, liver, oral, 3.8 mg/kg, D + 1, read-out: Hepatic content of total bromadiolone), the concentration at 1 day is 7850 ng/g.
In the case of `O=c1oc2ccccc2c(O)c1C(CC(O)c1ccc(-c2ccc(Br)cc2)cc1)c1ccccc1` (stereo not shown) [96/4], the “effect of repeated ingestion (anticoagulant effect, haemorrhage, death)” value in data set [5] was “sufficient to obtain an anticoagulant effect, a haemorrhage in the rat (male or female) and its death”.
Turning to `O=c1oc2ccccc2c(O)c1C(CC(O)c1ccc(-c2ccc(Br)cc2)cc1)c1ccccc1` (stereo not shown) [Hetero-SI, reference compound], the Hepatic content in data set [1] (setting [6]) was determined as 18.62 ± 2.22 µg/g; in data set [1] (setting [7]), 14.70 ± 1.06 µg/g; in data set [1] (setting [8]), 5.20 ± 0.75 µg/g; in data set [1] (setting [9]), 2.67 ± 1.07 µg/g; in data set [1] (D + 21, 3.0 mg/kg tube-fed on D0, 3 mg/kg) it was 0.99 ± 0.07 µg/g. The Ki in data set [4] is roughly 50 nM.
Take `O=c1oc2ccccc2c(O)c1C(CC(O)c1ccc(-c2ccc(Br)cc2)cc1)c1ccccc1` (stereo not shown) [Mixture 4/96, reference compound]: the “Hepatic content of total bromadiolone” value in data set [3] (3.8 mg/kg, D + 1, 3.8 mg/kg) was 14.96 ± 2.0 µg/g; in data set [3] (3.8 mg/kg, D + 1, listed as 4/96 mixture, 3.8 mg/kg), 14.96 µg/g; in data set [3] (3.8 mg/kg, D + 3, 3.8 mg/kg), 10.08 ± 3.3 µg/g; in data set [3] (3.8 mg/kg, D + 5, 3.8 mg/kg), 9.99 ± 1.0 µg/g. In addition, the concentration at 10 day in data set [3] (male, Sprague Dawley, rat, liver, oral, 3.8 mg/kg, D + 10, read-out: Hepatic content of total bromadiolone) came out at 2390 ng/g.
